# What was measured:
# [1] = for Geometric mean area under the concentration‐time curve: AUC type not specified; for CL/F (apparent clearance): Overall (N = 12), healthy Japanese, arithmetic mean (SD); for AUC0‐∞, healthy Japanese (this study) vs ING114580 / Maximum concentration, healthy Japanese (this study) vs ING114580: greater in healthy Japanese participants
# [2] = cited from earlier work; for Maximum concentration: studied as individual components, abacavir 600 mg and lamivudine 300 mg
# [3] = clinical; conditions: human, in vivo, po
# [4] = cited from earlier work
# [5] = system: uridine diphosphate glucuronosyltransferase family 1 member A1 (UGT1A1); conditions: cited from earlier work
# [6] = system: adenosine triphosphate–binding cassette subfamily G transport protein (ABCG2); conditions: cited from earlier work
# [7] = N = 12 healthy Japanese, single oral dose, fasted
# [8] = dolutegravir twice‐daily dosing
"Geometric mean CL/F [1, 7]","Geometric mean maximum plasma concentration [1, 7]","Geometric mean area under the concentration‐time curve [1, 7]","CL/F (apparent clearance) ([1]; single oral dose, fasted)","AUC0‐∞, healthy Japanese (this study) vs ING114580 [1]","Maximum concentration, healthy Japanese (this study) vs ING114580 [1]",Cmax ([3]; both),Tmax ([3]; both),concentration at 24 h ([3]; both),CL/F ([3]; female),Cmax ([3]; female),Tmax ([3]; female),concentration at 24 h ([3]; female),half-life ([3]; female),CL/F ([3]; male),Cmax ([3]; male),Tmax ([3]; male),concentration at 24 h ([3]; male),half-life ([3]; male),SMILES,Maximum concentration [2],other results
32.9 L/h,5.22 µg/mL,18200 ng·h/mL,33.7 (8.54) L/h,≈ 1.3 fold,1.3 fold,5380 ng/mL,1.01 h,6.75 ng/mL,10.5 mL/min/kg,5770 ng/mL,1.51 h,6.6 ng/mL,2.87 h,9 mL/min/kg,4600 ng/mL,0.99 h,7.1 ng/mL,2.77 h,"Nc1nc(NC2CC2)c2ncn([C@H]3C=C[C@@H](CO)C3)c2n1 [Abacavir, abacavir]",4.26 ± 1.19 µg/mL,half-life ([3]; both): 2.84 h
0.678 L/h,4.13 µg/mL,71600 ng·h/mL,0.691 (0.145) L/h,,,4210 ng/mL,3.5 h,1150 ng/mL,0.167 mL/min/kg,4450 ng/mL,2.98 h,1130 ng/mL,13.7 h,0.167 mL/min/kg,3750 ng/mL,4 h,1180 ng/mL,14.6 h,"C[C@@H]1CCO[C@H]2Cn3cc(C(=O)NCc4ccc(F)cc4F)c(=O)c(O)c3C(=O)N12 [Dolutegravir, dolutegravir]",,"Exposure (geometric mean AUC0‐∞) of dolutegravir vs abacavir and lamivudine [1, 7]: ≈ 4 times; tmax relative to abacavir (times more slowly) [1, 7]: 3 times; Exposure, this study vs ING115381 ([1]; higher than in healthy Japanese participants given dolutegravir 50 mg alone): 1.9 fold; Cmax (geometric mean) [2, 8]: 4150 ng/mL; Geometric mean AUC from time 0 to 24 hours [2, 8]: 75100 ng·h/mL; Increase in dolutegravir exposure with atazanavir (UGT1A1 inhibitor) ([2]; once‐daily dosing with atazanavir): ≈ 2 fold; Exposure in individuals with ABCG2 genetic variant 421AA [4]: demonstrably higher; Exposure increase in UGT1A*6 heterozygous individuals ([4]; evaluation of 9 phase 1/2 clinical studies): ≈ 1.4 fold; Total magnitude of change in exposure from body weight ([4]; population PK models): < 30%; Oral bioavailability, higher in women than men ([4]; population PK): ≈ 21%; Substrate of UGT1A1 [5]: substrate; Substrate of ABCG2 [6]: substrate"
,3.35 µg/mL,16600 ng·h/mL,,≈ 1.3 fold,1.6 fold,3430 ng/mL,2.98 h,38.7 ng/mL,,3650 ng/mL,2.98 h,32.6 ng/mL,,,2980 ng/mL,2.5 h,50.9 ng/mL,,"Nc1ccn([C@@H]2CS[C@H](CO)O2)c(=O)n1 [Lamivudine, lamivudine]",2.04 ± 0.54 µg/mL,"tmax relative to abacavir (times more slowly) [1, 7]: 3 times; Median tmax, this study vs EPZ104807 ([1]; higher than previously reported in Japanese participants (abacavir/lamivudine formulation)): 1.5 fold"

# — paper PMC8456852 (Clinical Pharmacology in Drug Development, 2021)
